Measurements as given in patent US20250361234A1 (NICO THERAPEUTICS, INC., priority 2022, published 2025).

Target: T1, full-length SARM1 (FL-SARM1) (Homo sapiens, UniProt Q6SZW1)
T1 sequence (Q6SZW1 28-724): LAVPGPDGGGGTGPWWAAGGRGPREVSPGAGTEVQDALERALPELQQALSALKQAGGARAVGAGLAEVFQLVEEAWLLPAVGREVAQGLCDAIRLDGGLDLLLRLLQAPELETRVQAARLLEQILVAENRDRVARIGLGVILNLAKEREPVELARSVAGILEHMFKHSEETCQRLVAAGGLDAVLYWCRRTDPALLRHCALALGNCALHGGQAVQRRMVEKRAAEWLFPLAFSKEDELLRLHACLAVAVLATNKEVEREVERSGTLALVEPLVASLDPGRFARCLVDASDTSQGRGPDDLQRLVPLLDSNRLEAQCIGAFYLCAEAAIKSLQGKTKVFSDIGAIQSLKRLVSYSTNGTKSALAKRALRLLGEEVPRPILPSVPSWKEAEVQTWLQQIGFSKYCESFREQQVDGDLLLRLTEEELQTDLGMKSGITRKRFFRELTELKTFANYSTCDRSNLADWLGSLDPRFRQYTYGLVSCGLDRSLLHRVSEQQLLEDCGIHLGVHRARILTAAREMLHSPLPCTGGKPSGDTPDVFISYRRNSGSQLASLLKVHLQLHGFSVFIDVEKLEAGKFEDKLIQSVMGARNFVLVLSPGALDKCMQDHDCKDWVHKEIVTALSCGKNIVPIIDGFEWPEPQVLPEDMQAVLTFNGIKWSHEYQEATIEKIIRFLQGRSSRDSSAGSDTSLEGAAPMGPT
Experiment: FL-SARM1 cellular lysate assay (NAD/NADH-Glo readout of remaining NAD+)
Conditions: SARM1 cellular lysate from transfected HEK293T cells, NAD+ and NMN, 11 point curve
Experimental: Preparation of full-length SARM1 (FL-SARM1) lysate: HEK293T cells (ATCC: CRL-3216) were grown on 150 mm TC-treated dishes to 80-90% confluency in complete DMEM (Thermo Fisher: 11965175) supplemented with 10% HI-FBS (VWR: 10802-772), 1× Pen/Strep (Thermo Fisher: 15140122), 1× NEAA (Thermo Fisher: 1140050), 1× glutamax (Thermo Fisher: 35050061), and 1 mM sodium pyruvate (Thermo Fisher: 11360070)) at 37° C. and 5% CO2. One hour prior to transfection, the media was replaced with fresh, 37° C. complete DMEM (20 mL per one 150 mm dish) supplemented with additional 10 mM glucose (Alfa Aesar AAJ60067EQE). Per one 150 mm dish, 30 μg FL-SARM1 (SEQ. ID. 1; cloned in-house) plasmid was dissolved in 1 mL DMEM at ambient temperature and were mixed by inverting the tube 8-10 times. 90 μL of GenJet™ in vitro DNA transfection reagent (Ver2) was dissolved in 1 mL DMEM at ambient temperature and were mixed by inverting the tube 8-10 times. The plasmid and transfection agent solutions were combined, mixed by 8-10 inversions and incubated for 10 minutes at ambient temperature. 2 mL of this transfection mixture was added to each dish containing HEK293T cells as prepared above followed by a gentle mixing of 4-5 horizontal rotations. The dishes were incubated at 37° C. and 5% CO2 for 24 h. The dishes were removed from the incubator, the medium was aspirated and the cells were scraped off using cell scrapers in ice-cold 1× PBS (5 mL/dish, Thermo Fisher Scientific 10010023). The collected cells were centrifuged at 300 g for 5 minutes at 4° C. The supernatant was aspirated and the pellet was frozen at −80° C. until needed. The cell pellet from 30 dishes was dissolved in 30 mL 1× PBS supplemented with 4 tablets of Complete, Mini EDTA-free protease inhibitor cocktail at 4° C. This mixture was sonicated on ice for 10 minutes at 50% amplitude with a 1 second on/1 second off interval using a Model 120 sonicator (Thermo Fisher Scientific, FB120110). The lysate was centrifuged at 16000 g for 10 minutes at 4° C.
To a white 384-well Proxiplate (PerkinElmer, PE-6008280) was added 50 nL/well of a DMSO solution containing test compounds followed by 7.5 mL/well of a 0.067 mg/mL solution of SARM1 cellular lysate in reaction buffer (DPBS containing CHAPSO (0.1%) and fatty acid free BSA (0.032%)). The plate was centrifuged for 1 minute at 1000 RPM and then placed in an incubator at 23° C. for 15 minutes. To the wells were added 2.5 mL/well of a solution containing 40 mM NAD^+ and 4 mM NMN in reaction buffer. The plate was centrifuged for 1 min at 1000 RPM, the plate was sealed and placed in an incubator at 23° C. for 3.5 hours before adding 3.5 mL/well of NAD/NADH-Glo™ solution (preparation as described by Promega using the extended detection protocol). The plate was centrifuged for 1 minute at 1000 RPM and then incubated at 23° C. for 20 minutes. 1 mL/well of a 3.625 mM solution of menadione in DMSO was added and the plate was centrifuged for 1 minute at 1000 RPM. […] Percent inhibition was calculated as follows:
IC50 values were calculated from an 11 point curve using ½ log dilutions using a four-parameter logistic regression curve fit.

Compound | IC50 (Activity (μM)) | IC50 (Activity)
Cc1ccc(NC(=O)N2C3CC[C@H](C(=O)N(C)C)[C@@H]2C3)cc1-c1cncc(F)c1 [Example 33, cis-N^6-(3-(5-fluoropyridin-3-yl)-4-methylphenyl)-N^2,N^2-dimethyl-6-azabicyclo[3.1.1]heptane-2,6-dicarboxamide] | 32.9 µM | > 10 µM
Cc1ccc(NC(=O)N2C3CC[C@@H](C(=O)N(C)C)[C@@H]2C3)cc1-c1cncc(F)c1 [Example 34, trans-N^6-(3-(5-fluoropyridin-3-yl)-4-methylphenyl)-N^2,N^2-dimethyl-6-azabicyclo[3.1.1]heptane-2,6-dicarboxamide] | 47.3 µM | > 10 µM
Cc1ccc(NC(=O)N2C3CCCC2C3)cc1-c1cncc(OC(F)(F)F)c1 [Example 35, N-(4-methyl-3-(5-(trifluoromethoxy)pyridin-3-yl)phenyl)-6-azabicyclo[3.1.1]heptane-6-carboxamide] | 0.1 µM | 0.0001 to 1 µM
Cc1ccc(NC(=O)N2C3C[C@@H](C#N)C[C@@H]2C3)cc1-c1cncc(F)c1 [Example 36, trans-3-cyano-N-(3-(5-fluoropyridin-3-yl)-4-methylphenyl)-6-azabicyclo[3.1.1]heptane-6-carboxamide] | 0.8 µM | 0.0001 to 1 µM
Cc1ccc(NC(=O)N2C3CC2CC(F)(F)C3)cc1-c1cncc(F)c1 [Example 37, 3,3-difluoro-N-(3-(5-fluoropyridin-3-yl)-4-methylphenyl)-6-azabicyclo[3.1.1]heptane-6-carboxamide] | 0.5 µM | 0.0001 to 1 µM
Cc1ccc(NC(=O)N2C3CC(=O)CC2C3)cc1-c1cncc(F)c1 [Example 38, N-(3-(5-fluoropyridin-3-yl)-4-methylphenyl)-3-oxo-6-azabicyclo[3.1.1]heptane-6-carboxamide] | 2.3 µM | 1 to 10 µM
CCO[C@H]1CC2C[C@H](C1)N2C(=O)Nc1ccc(C)c(-c2cncc(F)c2)c1 [Example 39, trans-3-ethoxy-N-(3-(5-fluoropyridin-3-yl)-4-methylphenyl)-6-azabicyclo[3.1.1]heptane-6-carboxamide] | 8.3 µM | 1 to 10 µM
COC(=O)[C@H]1CCC2C[C@@H]1N2C(=O)Nc1ccc(C)c(-c2cncc(F)c2)c1 [Example 40, cis-methyl 6-((3-(5-fluoropyridin-3-yl)-4-methylphenyl)carbamoyl)-6-azabicyclo[3.1.1]heptane-2-carboxylate] | 20.9 µM | > 10 µM
Cc1cc(F)c(NC(=O)N2C3C[C@H](C)C[C@@H]2C3)cc1-c1cncc(F)c1 [Example 41, cis-N-(2-fluoro-5-(5-fluoropyridin-3-yl)-4-methylphenyl)-3-methyl-6-azabicyclo[3.1.1]heptane-6-carboxamide] | 0.04 µM | 0.0001 to 1 µM
C[C@@H]1CC2C[C@H](C1)N2C(=O)Nc1ccc(C(F)F)c(-c2cncc(F)c2)c1 [Example 42, cis-N-(4-(difluoromethyl)-3-(5-fluoropyridin-3-yl)phenyl)-3-methyl-6-azabicyclo[3.1.1]heptane-6-carboxamide] | 0.06 µM | 0.0001 to 1 µM
COC[C@H]1C2CCC[C@H]1N2C(=O)Nc1ccc(C)c(-c2cncc(F)c2)c1 [Example 44, N-trans-(3-(5-fluoropyridin-3-yl)-4-methylphenyl)-7-(methoxymethyl)-6-azabicyclo[3.1.1]heptane-6-carboxamide] | 17.2 µM | > 10 µM
Cc1ccc(NC(=O)N2C3CCCC2C3)cc1-c1cncc(OCF)c1 [Example 45, N-(3-(5-(fluoromethoxy)pyridin-3-yl)-4-methylphenyl)-6-azabicyclo[3.1.1]heptane-6-carboxamide] | 0.06 µM | 0.0001 to 1 µM
Cc1ccc(NC(=O)N2C3CCCC2C3)cc1-c1cncc(S(C)(=O)=O)c1 [Example 47, N-(4-methyl-3-(5-(methylsulfonyl)pyridin-3-yl)phenyl)-6-azabicyclo[3.1.1]heptane-6-carboxamide] | 17 µM | > 10 µM
Cc1ccc(NC(=O)N2C3CCCC2C3)cc1-c1cncc(OC(F)F)c1 [Example 48, N-(3-(5-(difluoromethoxy)pyridin-3-yl)-4-methylphenyl)-6-azabicyclo[3.1.1]heptane-6-carboxamide] | 0.1 µM | 0.0001 to 1 µM
Cc1ccc(NC(=O)N2C3C[C@H](C#N)C[C@@H]2C3)cc1-c1cncc(F)c1 [Example 49, cis-3-cyano-N-(3-(5-fluoropyridin-3-yl)-4-methylphenyl)-6-azabicyclo[3.1.1]heptane-6-carboxamide] | 0.4 µM | 0.0001 to 1 µM
Cc1ccc(NC(=O)N2C3CC2CC2(CC2)C3)cc1-c1cncc(F)c1 [Example 54, N-(3-(5-fluoropyridin-3-yl)-4-methylphenyl)-6-azaspiro[bicyclo[3.1.1]heptane-3,1′-cyclopropane]-6-carboxamide] | 0.06 µM | 0.0001 to 1 µM
O=C(Nc1ccc(Cl)c(-c2cncc(F)c2)c1)N1C2C[C@H](OC(F)F)C[C@H]1C2 [Example 55, trans-N-(4-chloro-3-(5-fluoropyridin-3-yl)phenyl)-3-(difluoromethoxy)-6-azabicyclo[3.1.1]heptane-6-carboxamide] | 0.3 µM | 0.0001 to 1 µM
Cc1ccc(NC(=O)N2C3C[C@H](OC(F)F)C[C@H]2C3)cc1-c1cncc(F)c1 [Example 56, trans-3-(difluoromethoxy)-N-(3-(5-fluoropyridin-3-yl)-4-methylphenyl)-6-azabicyclo[3.1.1]heptane-6-carboxamide] | 0.09 µM | 0.0001 to 1 µM
COc1ccncc1-c1cc(NC(=O)N2C3CCCC2C3)ccc1C [Example 59, N-[3-(4-methoxypyridin-3-yl)-4-methylphenyl]-6-azabicyclo[3.1.1]heptane-6-carboxamide] | 1.7 µM | 1 to 10 µM
Cc1ccc(NC(=O)N2C3CCCC2C3)cc1-c1ccc(C#N)nc1 [Example 60, N-[3-(6-cyanopyridin-3-yl)-4-methylphenyl]-6-azabicyclo[3.1.1]heptane-6-carboxamide] | 8.5 µM | 1 to 10 µM
Cc1ccc(NC(=O)N2C3CCCC2C3)cc1-c1cccnc1C#N [Example 61, N-[3-(2-cyanopyridin-3-yl)-4-methylphenyl]-6-azabicyclo[3.1.1]heptane-6-carboxamide] | 0.8 µM | 0.0001 to 1 µM
Cc1ccc(NC(=O)N2C3CCCC2C3)cc1-c1cnccc1C#N [Example 62, N-(3-(4-cyanopyridin-3-yl)-4-methylphenyl)-6-azabicyclo[3.1.1]heptane-6-carboxamide] | 1.1 µM | 1 to 10 µM
Cc1ccc(NC(=O)N2C3CCCC2C3)cc1-c1ccnnc1 [Example 63] | 25.9 µM | > 10 µM
O=C(Nc1ccc(C2CC2)c(-c2cncc(F)c2)c1)N1C2CCCC1C2 [Example 66, N-(4-cyclopropyl-3-(5-fluoropyridin-3-yl)phenyl)-6-azabicyclo[3.1.1]heptane-6-carboxamide] | 2 µM | 1 to 10 µM
COc1ccc(-c2cc(NC(=O)N3C4CCCC3C4)ccc2C)cn1 [Example 67, N-(3-(6-methoxypyridin-3-yl)-4-methylphenyl)-6-azabicyclo[3.1.1]heptane-6-carboxamide] | 0.4 µM | 0.0001 to 1 µM
